In patent publication US20230357328A1, “SARS-CoV-2 PROTEIN-DERIVED PEPTIDE AND VACCINE CONTAINING SAME” (ONCOTHERAPY SCIENCE, INC., priority 2020, published 2023):
“Also recorded” adds a separate entry of the source. Read-outs that look alike come from different tables or passages of the source.

Assays:
Assay type in all cases: cell-based, human
[1] = test system: HLA-A*24:02-expressing target cells (TISI cells)
[2] = test system: HLA-A*02:01-expressing target cells (T2 cells)
[3] = test system: CD8-positive T cells in PBMCs of individuals who had recovered from COVID-19 (HLA-A*24:02-positive)
[4] = test system: CD8-positive T cells in PBMCs of individuals not infected with SARS-CoV-2 (HLA-A*24:02-positive)
[5] = test system: HLA-A*02:01-expressing target cells (T2 cells); remark: listed apart in the source
[6] = test system: HLA-A*24:02-expressing target cells (TISI cells); remark: listed apart in the source
[7] = test system: TISI cells
[8] = HLA-A*24:02-restricted, peptide-pulsed TISI cells vs TISI cells not pulsed
[9] = HLA-A*02:01-restricted, peptide-pulsed T2 cells vs T2 cells not pulsed
[10] = HLA-A*24:02-restricted CTL lines, peptide-pulsed TISI cells
[11] = CTL clones from limiting dilution, TISI target cells
[12] = HLA-A*02:01-restricted CTL lines, peptide-pulsed T2 cells

Row | Sequence | Peptide-specific IFN-γ production (ELISPOT) [1, 8] | Peptide-specific IFN-γ production (ELISPOT) [2, 9] | Detection of tetramer-positive CD8-positive T cells recognizing the peptide [3] | IFN-γ production by CTL lines (ELISA) [6, 10] | Peptide-specific IFN-γ production by CTL clones (ELISA) [7, 11] | also measured
1 | YAYLRKHFSM (an amino acid sequence derived from ORF1ab polyprotein of SARS-CoV-2) [Peptide 15, SARS-CoV-2 ORF1ab-derived 10mer peptide, position 5138] | peptide-specific IFN-γ production was observed | no peptide-specific IFN-γ production was observed |  |  |  | 
2 | LWLLWPVTL [Peptide 13] |  |  | detected |  |  | Detection of tetramer-positive CD8-positive T cells recognizing the peptide [4]: detected; IFN-γ production by CTL lines (ELISA) [5]: produced IFN-γ in a peptide-specific manner; IFN-γ production by CTL lines (ELISA) [6]: produced IFN-γ in a peptide-specific manner; Peptide-specific IFN-γ production (ELISPOT) [1]: peptide-specific IFN-γ production was observed; Peptide-specific IFN-γ production (ELISPOT) [2]: peptide-specific IFN-γ production was observed
3 | TYASALWEI [Peptide 4] |  |  | detected |  |  | IFN-γ production by CTL lines (ELISA) [6]: produced IFN-γ in a peptide-specific manner; Peptide-specific IFN-γ production (ELISPOT) [1]: peptide-specific IFN-γ production was observed; Peptide-specific IFN-γ production (ELISPOT) [2]: peptide-specific IFN-γ production was observed
4 | VFMSEAKCW (an amino acid sequence derived from ORF1ab polyprotein of SARS-CoV-2) [Peptide 3, SARS-CoV-2 ORF1ab-derived 9mer peptide, position 5184] | peptide-specific IFN-γ production was observed | no peptide-specific IFN-γ production was observed |  |  |  | 
5 | RYFKYWDQTY [Peptide 12] | peptide-specific IFN-γ production was observed | peptide-specific IFN-γ production was observed |  |  |  | 
6 | YYSQLMCQPI (an amino acid sequence derived from ORF1ab polyprotein of SARS-CoV-2) [Peptide 7, SARS-CoV-2 ORF1ab-derived 10mer peptide, position 2560] | peptide-specific IFN-γ production was observed | peptide-specific IFN-γ production was observed |  | produced IFN-γ in a peptide-specific manner | showed IFN-γ production specific to | Detection of tetramer-positive CD8-positive T cells recognizing the peptide [4]: detected
7 | FTYASALWEI (an amino acid sequence derived from ORF1ab polyprotein of SARS-CoV-2) [Peptide 10, SARS-CoV-2 ORF1ab-derived 10mer peptide, position 4089] | peptide-specific IFN-γ production was observed |  | detected | produced IFN-γ in a peptide-specific manner | showed IFN-γ production specific to | 
8 | SYSLFDMSKF [Peptide 11] | peptide-specific IFN-γ production was observed | no peptide-specific IFN-γ production was observed |  |  |  | 
9 | PFAMQMAYRF (an amino acid sequence derived from surface glycoprotein of SARS-CoV-2) [Peptide 5, SARS-CoV-2 S protein-derived 10mer peptide, position 897] | peptide-specific IFN-γ production was observed | no peptide-specific IFN-γ production was observed | detected | produced IFN-γ in a peptide-specific manner |  | 
10 | TAYANSVFNI (an amino acid sequence derived from ORF1ab polyprotein of SARS-CoV-2) [Peptide 2, SARS-CoV-2 ORF1ab-derived 10mer peptide, position 5079] | peptide-specific IFN-γ production was observed | peptide-specific IFN-γ production was observed |  | produced IFN-γ in a peptide-specific manner | showed IFN-γ production specific to | IFN-γ production by CTL lines (ELISA) [5, 12]: produced IFN-γ in a peptide-specific manner
11 | YDYLVSTQEF (an amino acid sequence derived from ORF1ab polyprotein of SARS-CoV-2) [Peptide 6, SARS-CoV-2 ORF1ab-derived 10mer peptide, position 3811] | peptide-specific IFN-γ production was not found; also recorded: no peptide-specific IFN-γ production was observed |  |  |  |  | 
12 | AYANSVFNI [Peptide 1] | peptide-specific IFN-γ production was observed | peptide-specific IFN-γ production was observed |  | produced IFN-γ in a peptide-specific manner | showed IFN-γ production specific to | Detection of tetramer-positive CD8-positive T cells recognizing the peptide [4]: detected; IFN-γ production by CTL lines (ELISA) [5, 12]: produced IFN-γ in a peptide-specific manner
13 | RYKLEGYAF [Peptide 9] |  |  | detected |  |  | IFN-γ production by CTL lines (ELISA) [6]: produced IFN-γ in a peptide-specific manner; Peptide-specific IFN-γ production by CTL clones (ELISA) [7]: showed IFN-γ production specific to; Peptide-specific IFN-γ production (ELISPOT) [1]: peptide-specific IFN-γ production was observed; Peptide-specific IFN-γ production (ELISPOT) [2]: no peptide-specific IFN-γ production was observed
